Results on 17 compounds are retold here after EP0642343B1, “Acridine carboxamides for the treatment of cancer” (XENOVA LIMITED, priority 1992, dated 1993).

Data set [1] deals with advanced colon 38 tumours. Description: Tumour growth delay, advanced subcutaneous colon 38 tumours in mice. The class given is in vivo. As to the method:
Colon 38 carcinoma was obtained from the Mason Research Institute (Worchester, MA, USA) and was grown in BDF1 hosts. Tumour fragments (1 mm^3) were implanted subcutaneously in anaesthetised mice. Tumours had grown to the appropriate size 9 days after implantation. A melanoma tumour line (WADH) was developed in the Cancer Research Laboratory. Tumour cells were grown in culture and 1 x 10^6 cells were implanted intradermally into the flank of nude (C57BI/J genetic background) mice. Mice were grown under sterile surroundings until tumours were of appropriate size.
Tumours were measured 3x (colon 38) or 2x (xeno-graft) weekly with callipers and tumour volumes calculated as 0.52a^2b, where a and b were the minor and major tumour axes. Tumour growth delays were measured at a time when tumour volumes of treated and control animals had increased by 4-fold.
The effects of five compounds, • (i) DACA • (ii) N-[2-(dimethylamino)ethyl]-9-methoxyphen-azine-1-carboxamide (compound 28 of J. Med. Chem., 1987, 30, 843-851), • (iii) N-[2-(dimethylamino) ethyl]-2-phenylquino-line-8-carboxamide (compound 6 of J. Med. Chem. 1988, 31, 1048-1052), • (iv) N-[2-(dimethylamino)ethyl]-2-(4-pyridyl)-guinoline-8-carboxamide (compound 18 of J. Med. Chem., 1989, 32, 396-401), and • (v) N-[2-(dimethylamino)ethyl]-9-bromo-dibenzo-[1,4]-dioxin-1-carboxamide (compound 20 of J. Med. Chem. 1992, 35, 258-266) on the growth of advanced colon 38 tumours in mice was investigated by implanting tumour fragments subcutaneously and allowing them to grow until they had reached a diameter of 5-8 mm.

The test system of data set [2] is subcutaneous melanoma xenografts growing in nude mice. As to conditions: summary given by Berger et al.; cited from earlier work.
The test system of data set [3] is human cell lines. As to the kind of experiment: Cytotoxicity under continuous drug exposure, mean over human cell lines. In kind it is cell-based. The settings on record: read-out: mean IC50 value for human cell lines. As to the method: The latter value compared with 2 µM for the 4-pyridyl-quinoline analogue, 0.76 µM for amsacrine, 0.1 µM for the amsacrine analogue 4'-(9-[4-[N-methylcarboxamido]-5-methyl]-acridinylamino)-methanesulphon-m-anisidide ("CI-921") and 81 µM for etoposide.

The test system of data set [4] is B1A. Description: Resistance factor, drug-resistant Jurkat leukaemia subline. In kind it is cell-based, human. The method, then: (§1) Tumour cell lines were cultured in 96-well plates. Growth of NCI cell lines was assessed using sulpho-rhodamine B staining (Skehan P., et al., J. Natl. Cancer Inst. 1990, 82, 1107-1112), that of the leukaemia lines with (4,5-dimethylthiazole-2-yl)-2,5-diphenyltetrazolium (MTT) staining (Mosmann T., J. Immun. Methods 1983, 65, 55-63) and that of the primary human tumour material by ^3H-thymidine incorporation (Marshall E.S., et al., J. Natl. Cancer Inst. 1992, 84, 341-344). Primary tumour material was cultured in 96-well plates in which the wells were coated with agarose to inhibit selectively the growth of normal cells. (Marshall E.S., et al., J. Natl. Cancer Inst. 1992, 84, 341-344). Primary cultures were incubated at 37°C in sealed perspex boxes containing a humidified atmosphere of 5% CO2 and 5% O2 in nitrogen for 7 days. 5-Methyl-[^3H]-thymidine (20 Ci.mmol^-1; 0.04 µCi per well), thymidine and 5-fluorodeoxyuridine (each at final concentrations of 0.5 µM) were added in medium to cultures (20 µl per well) 24 h before terminating the cultures. Cells were aspirated on to glass fibre filters using a multiple automated sample harvester (LKB Wallac OY Beta Harvester). The filter discs were washed for 15 seconds with water, dried, and the amount of tritium retained quantified by liquid scintillation.
(§2) IC50 values were defined as in Paull K.D., et al., J. Natl. Cancer Inst. 1989, 81:1088-1092, where growth, as indicated by staining or thymidine incorporation, corresponded to 50% of that of the control cultures. […] Variances of DELTA values were expressed as standard deviations in log10 units. Comparison of DELTA values was made using Pearson correlation coefficients. Resistance factors were defined as the ratios of IC50 values between the resistant line and the parent line. Statistical evaluation was performed either with NCI programmes, with RS/1 software (BBN Research Systems, Cambridge, MA, USA), or with Sigmaplot (Jandel Scientific, San Rafael, CA, USA).
(§3) The effect of DACA on the growth of cultured cells was assessed by continuous drug exposure. […] Four multidrug-resistant cell lines, developed from JL and JB1 by in vitro exposure to increasing concentrations of doxorubicin (LD and B1D) or amsacrine (LA and B1A) (Finlay G.J., et al., J. Natl. Cancer Inst. 1990, 82, 662-667, Snow K., et al., Br. J. Cancer 1991, 63, 17-28) were tested.
(§4) DACA was compared with six other drugs including four topo II poisons, doxorubicin, mitozantrone, etopo-side and amsacrine. […]

In data set [5] the test system is B1D. The data set is described as above. In kind it is cell-based, human. As to the method: as §1, §2, §3, §4
Data set [6] deals with LA. Described as above. In kind it is cell-based, human. As to the method:
as §1, §2, §3, §4

The test system of data set [7] is LD. The description is as above. The class given is cell-based, human. The method, then:
as §1, §2, §3, §4

Data set [8] has as its system primary human melanoma cultures. Description: cells. The settings on record: for IC50: Homo sapiens, read-out: mean IC50. The method, then:
Acridine carboxamide hydrochloride, synthesised in the Cancer Research Laboratory (Atwell G.J., et al., J.Med. Chem. 1987, 30, 664-669), and amsacrine isethionate, obtained from the Parke-Davis Division of the Warner-Lambert Company, Ann Arbor, USA, were dissolved in 50% v/v aqueous ethanol to make stock solutions of 2-5 mmol/l and stored at -20°C. Other cytotoxic drugs were available either from the NCI repository (Monks A., et al., J. Natl. Cancer Inst. 1991, 83, 757-766) or were obtained as described in Marshall E.S., et al., J. Natl. Cancer Inst. 1992, 84, 341-344 and Finlay, et al., Eur. J. Cancer din. Oncol. 1986, 22, 655-662. Cell lines were from the NCI repository except for MM-96 (Dr. R. Whitehead, Ludwig Institute, Melbourne, Australia), FME (Dr. K.M. Tveit, Norwegian Radium Hospital, Oslo, Norway) and Jurkat normal and multidrug-resistant lines (Dr. K. Snow and Dr. W. Judd, Department of Cellular and Molecular Biology, University of Auckland). Melanoma tissue was obtained from patients with pathologically confirmed metastatic and recurrent melanomas under Auckland Hospital Ethical Committee guidelines. Cells were released by digestion of tissue (at 50 mg.ml^-1) with collagenase (1 mg.ml^-1) and DNAase (50 µg.ml^-1) with continuous stirring at 37°C for 1 to 2 hours, and cultured as previously described (Marshall E.S., et al., J. Natl. Cancer Inst. 1992, 84, 341-344).
as §1, §2
DACA was also compared in a series of 12 primary melanoma cultures. Tissue was excised from human malignant melanomas and cultured using a modified 96-well assay system in which the cells were cultured on agarose and assayed for proliferation using the ^3H-thymidine incorporation assay as described in Marshall E.S., et al., J. Natl. Cancer Inst. 1992, 84, 341-344.

Data set [9] has as its system panel of cell lines encompassing a number of tumour types. As to the kind of experiment: NCI cell line panel, growth inhibition by protein staining. In kind it is cell-based. The settings on record: data provided by the National Cancer Institute. As to the method: as §1, §2
Where [10] appears, read: maximum tolerated dose of the comparison drug.
[11] abbreviates: 100mg/kg each injection, ip, 2 doses, 0, 60 min.
Setting [12] is: B1A (from B1 by exposure to amsacrine), ratio of IC50 resistant line / parent line.
Setting [13] is: B1D (from B1 by exposure to doxorubicin), ratio of IC50 resistant line / parent line.
[14] abbreviates: LA (from L by exposure to amsacrine), ratio of IC50 resistant line / parent line.
Where [15] appears, read: LD (from L by exposure to doxorubicin), ratio of IC50 resistant line / parent line.
Where [16] appears, read: human, jurkat leukaemia sublines.

Read-outs that look alike come from different tables or passages of the source.

As to `O=c1[nH]cc(F)c(=O)[nH]1` [5-fluorouracil, reference compound], the Growth delay in [1] (setting [10]) was determined as 13 days. Moreover, the “Percentage of xenografts responding” value in data set [2] is 14%.
As for `COc1cccc2nc3cccc(C(=O)NCCN(C)C)c3nc12` [(ii), N-[2-(dimethylamino)ethyl]-9-methoxyphen-azine-1-carboxamide], the “Growth delay (days)” value in data set [1] (setting [11]) is given as 5,5 (2 expts) days.
Consider `CN(C)CCNC(=O)c1cccc2ccc(-c3ccccc3)nc12` [(iii), N-[2-(dimethylamino)ethyl]-2-phenylquino-line-8-carboxamide], for which the “Growth delay” value in [1] (75mg/kg each injection, ip, 2 doses, 0,60 min) is 8.5 days.
For the compound `CN(C)CCNC(=O)c1cccc2ccc(-c3ccncc3)nc12` [(iv), N-[2-(dimethylamino)ethyl]-2-(4-pyridyl)-guinoline-8-carboxamide], the IC50 (as a rule, the point on the concentration scale where inhibition reaches its midpoint) in data set [3] (continuous drug exposure over approx. 5 cell doubling times) is 2000 nM. For the same compound, the “Growth delay” value in data set [1] (50mg/kg each injection, ip, 2 doses, 0,60 min) amounted to 5 days.
For `CN(C)CCNC(=O)c1cccc2c1Oc1c(Br)cccc1O2` [(v), N-[2-(dimethylamino)ethyl]-9-bromo-dibenzo-[1,4]-dioxin-1-carboxamide], in data set [1] (setting [11]), the “Growth delay” value is 7 days.
Turning to `CNC(=O)c1cccc2c(Nc3ccc(NS(C)(=O)=O)cc3OC)c3cccc(C)c3nc12` [CI-921, 4'-(9-[4-[N-methylcarboxamido]-5-methyl]-acridinylamino)-methanesulphon-m-anisidide], the IC50 in data set [3] was determined as 100 nM.
On to `N.N.[Cl][Pt][Cl]` [Cisplatin], for which the “Percentage of xenografts responding” value in [2] is reported as 13%.
For the compound `CN(Cc1cnc2nc(N)nc(N)c2n1)c1ccc(C(=O)N[C@@H](CCC(=O)O)C(=O)O)cc1` [Methotrexate], in [2], the “Percentage of xenografts responding” value is given as 7%.
Regarding `CC[C@]1(O)C[C@@H]2CN(CCc3c([nH]c4ccccc34)[C@@](C(=O)OC)(c3cc4c(cc3OC)N(C)[C@H]3[C@@](O)(C(=O)OC)[C@H](OC(C)=O)[C@]5(CC)C=CCN6CC[C@]43[C@@H]65)C2)C1` [Vinblastine], the “Percentage of xenografts responding” value in data set [2] is on record as 10%.
Take `CC[C@@]1(O)C(=O)OCc2c1cc1n(c2=O)Cc2cc3ccccc3nc2-1` [camptothecin]: the Resistance factors came to 0.48 in data set [4] (setting [12]), 0.86 in [5] (setting [13]), 1.0 in data set [6] (setting [14]) and 0.97 in data set [7] (setting [15]).
In data set [1] (setting [10]), `O=P1(N(CCCl)CCCl)NCCCO1` (centres unmarked) [cyclophosphamide, reference compound] had a Growth delay of 6.5 days. For the same compound, the “Percentage of xenografts responding” value in data set [2] is reported as 11%.
For `COc1cccc2c1C(=O)c1c(O)c3c(c(O)c1C2=O)C[C@@](O)(C(=O)CO)C[C@@H]3O[C@H]1C[C@H](N)[C@H](O)[C@H](C)O1` [doxorubicin], the IC50 in data set [8] came to 56 nM; in data set [9], 140 nM. Further, the Resistance factors in [4] (setting [16]) is 11; in data set [5] (setting [16]) it was 15; in [6] (setting [16]), 3.8; in data set [7] (setting [16]) it was 16. Further, the “Percentage of xenografts responding” value in data set [2] is 5% (total of 5 studies).
As for `COc1cc([C@@H]2c3cc4c(cc3[C@@H](O[C@@H]3O[C@@H]5CO[C@@H](C)O[C@H]5[C@H](O)[C@H]3O)[C@H]3COC(=O)[C@H]23)OCO4)cc(OC)c1O` [etoposide], the IC50 in [3] was 81000 nM; in [8] it was 2200 nM; in [9], 21000 nM. The “proportions of cells killed” value in data set [8] (human, primary melanoma cultures) is reported as at most 90%. Also, the Resistance factors in data set [4] (setting [16]) was found to be 22; in data set [5] (setting [16]), 83; in data set [6] (setting [16]) it was 11; in [7] (setting [16]), 93. The “Percentage of xenografts responding” value in [2] is recorded as 0% (2 studies).
With `O=C1c2c(O)ccc(O)c2C(=O)c2c(NCCNCCO)ccc(NCCNCCO)c21` [mitoxantrone], the Resistance factors in [4] (setting [12]) is 59; in data set [5] (setting [13]), 8.4; in [6] (setting [14]) it was 42; in data set [7] (setting [15]), 160.
On to `CC[C@]1(O)C[C@H]2CN(CCc3c([nH]c4ccccc34)[C@@](C(=O)OC)(c3cc4c(cc3OC)N(C=O)[C@H]3[C@@](O)(C(=O)OC)[C@H](OC(C)=O)[C@]5(CC)C=CCN6CC[C@]43[C@@H]65)C2)C1` [vincristine], for which the Resistance factors in data set [4] (setting [16]) is 2.0; in [5] (setting [16]), 10; in [6] (setting [16]), 1.5; in data set [7] (setting [16]), 3.6. The “Percentage of xenografts responding” value in [2] was 43%.
Bleomycin: the “Percentage of xenografts responding” value in data set [2] is listed as 0%.
Take Mitomycin C: in data set [2], the “Percentage of xenografts responding” value is recorded as 32%.
